Measurements published in patent publication US20060014219A1 (priority 2002, published 2006).
Where two headings read alike, the source gives them in different places.

How the values were obtained:
[1] = system: tobacco budworm GABA-gated chloride channel; assay type: cell-based; settings: for Fluorescence: then GABA, HEK a-3 cells, average of three tests
Procedure: The following solutions were prepared prior to or on the same day the experiment was to be carried out: • Solution A: To about one liter of deionized water was added 8.0 grams of sodium chloride, 0.395 gram of potassium chloride, 0.294 gram of calcium chloride, 0.203 gram of magnesium chloride, 4.5 grams of glucose, and 2.38 grams of [4-(2-hydroxyethyl)-1-piperazineethanesulfonic acid (“HEPES”) (all available from Aldrich Chemical Company, Milwaukee, Wis.). The resulting solution was stirred until dissolution was complete and then the pH adjusted to 7.3 to 7.4 with an aqueous 1 M sodium hydroxide solution. • Solution B: To one vile of the dye (“FLIPR® Membrane Potential Assay Reagent, Component A”) contained in the FLIPR® Membrane Potential Assay Kit was added about 10 ml of Solution A. The resulting mixture was mixed by repeated pippetting until the content of the vile was completely dissolved and used immediately or stored at […] for future use.
The following solution was prepared on the same day the experiment was to be carried out: • Solution C: To solution B was added about 90 mL of Solution A. The resulting mixture was mixed until dissolution was complete. • Solution D: GABA (available from Sigma Chemical Co., St. Louis, Mo.), […], was taken up in 30 ml of Solution A. The resulting solution was mixed until dissolution was completion, yielding a […] GABA solution. • Solution E: To 1.2 ml of Solution D was added 38.8 ml of Solution A. The resulting mixture was mixed by repeated pippetting until dissolution was complete, yielding a 300 μM GABA solution.
On the same day the experiment is to be carried, Solutions A-E are prepared again in the manner described above.
One day before of the experiment, HEK a-3 cells were seeded into two wells of a poly-D-lysine coated blackwall 96 well microplate with clear bottom at a cell density of about 100,000 cells per well. Upon completion of addition, the cells were incubated at 37° C. in a cell culture incubator for twenty-four hours, for use below.
In carrying out the first step, on the day of the experiment, the 96 well microplate containing the HEK a-3 cells was removed from the incubator and 100 μl of Solution C was added to the two wells of the 96 well microplate. Upon completion of addition, the microplate was allowed to stand at ambient temperature of 3.5 to 4 hours. After this time, the microplate was placed onto the FLIPR^384® Fluorometric Imaging Plate Reader system in which the laser intensity was set at a suitable level to obtain a basal value of approximately 10,000 fluorescence units, fluorescent readings were obtained every one second for the first minute and then every six seconds thereafter, and fluorescence measurements were captured by a cooled CCD camera. After ten seconds from the start of the fluorescence measurements, 25 μl of Solution E was added at a rate of 25 μl/second by the system to one of the two wells of the 96 well microplate. Upon completion of addition, the level of fluorescence of the HEK a-3 cells was determined using the FLIPR^384® Fluorometric Imaging Plate Reader system.
One day before of the experiment, HEK a-3 cells were seeded into each well of a poly-D-lysine coated blackwall 96 well microplate with clear bottom (available from Becton, Dickinson and Company, Franklin Lakes, N.J.) at a cell density of about 100,000 cells per well. Upon completion of addition, the cells were incubated at 37° C. in a cell culture incubator for twenty-four hours, for use below.
In carrying out the first step, on the day of the experiment, the 96 well microplate containing the HEK a-3 cells was removed from the incubator and 100 μl of Solution C were added to each well of the 96 well microplate. Upon completion of addition, the microplate was stored at ambient temperature for 3.5 to 4 hours. […]

[2] = system: tobacco budworm GABA-gated chloride channel; test: Fluorescence in HEK a-3 cells by the standard protocol of the FLIPR Membrane Potential Assay Kit; assay type: cell-based; settings: 25 μl of 300 μM GABA solution; dye incubated at 37° C. for 0.5 to one hour; FIG. 1
Procedure: This example illustrates the measurement of fluorescence in HEK a-3 cells in the manner described in the protocol for the FLIPR® Membrane Potential Assay Kit.
The following solutions were prepared prior to or on the same day the experiment was to be carried out: • Solution A: To about one liter of deionized water was added 8.0 grams of sodium chloride, 0.395 gram of potassium chloride, 0.294 gram of calcium chloride, 0.203 gram of magnesium chloride, 4.5 grams of glucose, and 2.38 grams of [4-(2-hydroxyethyl)-1-piperazineethanesulfonic acid (“HEPES”) (all available from Aldrich Chemical Company, Milwaukee, Wis.). […]
In carrying out the first step, on the day of the experiment, the 96 well microplate containing the HEK a-3 cells was removed from the incubator and 100 μl of Solution C was added to the two wells of the 96 well microplate. […] After this time, the microplate was placed onto the FLIPR^384® Fluorometric Imaging Plate Reader system in which the laser intensity was set at a suitable level to obtain a basal value of approximately 10,000 fluorescence units, fluorescent readings were obtained every one second for the first minute and then every six seconds thereafter, and fluorescence measurements were captured by a cooled CCD camera. […]

[3] = 10 μM compound, [1 − (fluorescence of test compound/fluorescence of control)] × 100
[4] = 0.003 μM compound, relative to DMSO control
[5] = 0.01 μM compound, relative to DMSO control
[6] = 0.03 μM compound, relative to DMSO control
[7] = 0.1 μM compound, relative to DMSO control
[8] = 0.3 μM compound, relative to DMSO control
[9] = 1 μM compound, relative to DMSO control
[10] = 3 μM compound, relative to DMSO control

| SMILES | Fluorescence ([1]; 10 μM compound) | % Inhibition [1, 3] [%] | Fluorescence ([1]; 0.003 μM compound) | % Inhibition [1, 4] [%] | Fluorescence ([1]; 0.01 μM compound) | % Inhibition [1, 5] [%] | Fluorescence ([1]; 0.03 μM compound) | % Inhibition [1, 6] [%] | Fluorescence ([1]; 0.1 μM compound) | % Inhibition [1, 7] [%] | Fluorescence ([1]; 0.3 μM compound) | % Inhibition [1, 8] [%] | Fluorescence ([1]; 1 μM compound) | % Inhibition [1, 9] [%] | Fluorescence ([1]; 3 μM compound) | % Inhibition [1, 10] [%] | change in fluorescence after addition of GABA [2] | change in fluorescence after addition of GABA ([1]; 25 μl of 300 μM GABA solution, dye at ambient temperature 3.5 to 4 hours, FIG. 2) |
| --- | --- | --- | --- | --- | --- | --- | --- | --- | --- | --- | --- | --- | --- | --- | --- | --- | --- | --- |
| CN1CCc2cc3c(cc2[C@H]1[C@@H]1OC(=O)c2c1ccc1c2OCO1)OCO3 [Bicuculine, bicuculine] | 11543 | 5 |  |  |  |  |  |  |  |  |  |  |  |  |  |  |  |  |
| ClC1=C(Cl)[C@]2(Cl)[C@@H]3[C@@H]4C[C@@H]([C@H]5O[C@@H]45)[C@@H]3[C@@]1(Cl)C2(Cl)Cl [Dieldrin, dieldrin] | 67 | 100 | 13284 | −1 | 12339 | 5 | 11492 | 12 | 9924 | 34 | 7279 | 44 | 4184 | 68 | 900 | 93 |  |  |
| O=S1OCC2C(CO1)C1(Cl)C(Cl)=C(Cl)C2(Cl)C1(Cl)Cl (stereo not drawn) [Endosulfan, endosulfan] | 993 | 93 | 14343 | −3 | 15198 | −9 | 11074 | 20 | 7098 | 48 | 4426 | 68 | 1903 | 86 | 1615 | 88 |  |  |
| N#Cc1nn(-c2c(Cl)cc(C(F)(F)F)cc2Cl)c(N)c1[S+]([O-])C(F)(F)F (stereo not drawn) [Fipronil, fipronil] | 628 | 95 | 11275 | 10 | 8328 | 43 | 6441 | 48 | 4469 | 64 | 2990 | 76 | 1790 | 86 | 1031 | 92 |  |  |
| NCCCC(=O)O [GABA, Gamma amino-n-butyric acid] |  |  |  |  |  |  |  |  |  |  |  |  |  |  |  |  | no change in fluorescence was observed | an increase in fluorescence |
| CCCC(C)C1(CC)C(=O)NC(=O)NC1=O (stereo not drawn) [Pentabarbitol] | 11575 | 5 |  |  |  |  |  |  |  |  |  |  |  |  |  |  |  |  |
